# Laboratory results taken from paper PMC4306947, “Synthesis and Antiproliferative Activity of Thiazolyl-bis-pyrrolo[2,3-b]pyridines and Indolyl-thiazolyl-pyrrolo[2,3-c]pyridines, Nortopsentin Analogues” (Marine Drugs, 2015).
# Tests used:
# UACC-257 = experiment: NCI-60 in vitro tumor cell screen, UACC-257; format: cell-based; conditions: Homo sapiens; UACC-257, Melanoma
# Procedure: (§1) All the synthesized thiazoles 1a–l, 2a–j, 3a–f and 4a–f were evaluated by the National Cancer Institute (Bethesda MD) for cytotoxicity against the NCI-60 cell line panel using standard protocols. Initially, all derivatives were tested at a single dose (10^−5 M) on the full panel of approximately 60 human tumor cell lines derived from 9 human cancer cell types, that have been grouped in disease sub-panels including leukemia, non-small-cell lung, colon, central nervous system (CNS), melanoma, ovarian, renal, prostate and breast cancers (data not shown). Compounds 1k and 4c were further selected for full evaluation at five concentration levels (10^−4–10^−8 M).
# (§2) The antitumor activity of compounds 1k and 4c was given by three parameters for each cell line: GI50 (GI50 is the molar concentration of the compound that inhibits 50% net cell growth), TGI (TGI is the molar concentration of the compound leading to total inhibition of net cell growth), and LC50 (LC50 is the molar concentration of the compound that induces 50% net cell death). The average values of mean graph midpoint (MG_MID) were calculated for each of these parameters.
# HCT-116 cells [1] = experiment: Acidic vesicular organelles by acridine orange staining (FACS); format: cell-based, human; conditions: 24 h
# Procedure: AO is a fluorescent molecule used either to identify apoptotic cell death or autophagy. It can interact with DNA emitting green fluorescence or accumulate in acidic organelles where it is protonated forming aggregates that emit bright red fluorescence. Briefly, cells were stained with a AO solution (5 μg/mL) for 15 min. Then they were washed, re-suspended in PBS and subjected to FACS analysis. The green (510–530 nm, FL-1) and red (650 nm, FL-3) fluorescence of AO with blue (488 nm) excitation was determined over 10,000 events.
# SK-MEL-28 = experiment: NCI-60 in vitro tumor cell screen, SK-MEL-28; format: cell-based; conditions: Homo sapiens; SK-MEL-28, Melanoma
# Procedure: as §1, §2
# 786-0 = experiment: NCI-60 in vitro tumor cell screen, 786-0; format: cell-based; conditions: Homo sapiens; 786-0, Renal Cancer
# Procedure: as §1, §2
# HOP-62 = experiment: NCI-60 in vitro tumor cell screen, HOP-62; format: cell-based; conditions: Homo sapiens; HOP-62, Non-Small Cell Lung Cancer
# Procedure: as §1, §2
# IGROV1 = experiment: NCI-60 in vitro tumor cell screen, IGROV1; format: cell-based; conditions: Homo sapiens, IGROV-1; IGROV1, Ovarian Cancer
# Procedure: as §1, §2
# HCT-116 cells [2] = experiment: Phosphatidylserine exposure, Annexin V-FITC/PI flow cytometry; format: cell-based, human; conditions: 24 h
# Procedure: The apoptosis-induced PS externalization to the cell surface was measured by flow cytometry by double staining with Annexin V-Fluorescein isothiocyanate (Annexin V-FITC)/propidium iodide (PI). Annexin V binding to phosphatidylserine is used to identify the earliest stage of apoptosis. […] After 24 h treatment, HCT-116 cells were harvested by trypsinization and adjusted at 1.0 × 10^6 cells/mL with combining buffer according to the manufacturer instructions (eBioscience, San Diego, CA, USA). One hundred μL of cell suspensions were added to a new tube, and incubated with Annexin V-FITC and PI solution at room temperature in the dark for 15 min. Then samples of at least 1.0 × 10^4 cells were subjected to FACS analysis using appropriate 2-bidimensional gating method.
# SK-OV-3 = experiment: NCI-60 in vitro tumor cell screen, SK-OV-3; format: cell-based; conditions: Homo sapiens; SK-OV-3, Ovarian Cancer
# Procedure: as §1, §2
# SN12C = experiment: NCI-60 in vitro tumor cell screen, SN12C; format: cell-based; conditions: Homo sapiens, Renal Cancer
# Procedure: as §1, §2
# SR = experiment: NCI-60 in vitro tumor cell screen, SR; format: cell-based; conditions: Homo sapiens, Leukemia
# Procedure: as §1, §2
# BT-549 = experiment: NCI-60 in vitro tumor cell screen, BT-549; format: cell-based; conditions: Homo sapiens; BT-549, Breast Cancer
# Procedure: as §1, §2
# LOX IMVI = experiment: NCI-60 in vitro tumor cell screen, LOX IMVI; format: cell-based; conditions: Homo sapiens, Melanoma
# Procedure: as §1, §2
# COLO-205 = experiment: NCI-60 in vitro tumor cell screen, COLO-205; format: cell-based; conditions: Homo sapiens; COLO-205, Colon Cancer
# Procedure: as §1, §2
# UO-31 = experiment: NCI-60 in vitro tumor cell screen, UO-31; format: cell-based; conditions: Homo sapiens; UO-31, Renal Cancer
# Procedure: as §1, §2
# [3] = tested on: intestinal normal-like differentiated Caco-2 cells; experiment: MTT viability assay, differentiated Caco-2 cells, 24 h; format: cell-based, human; conditions: range 5 to 100 μM
# Procedure: Nortopsentin analogues, prepared as described above, were dissolved in dimethyl sulfoxide (DMSO) and then diluted in culture medium to have a DMSO concentration not exceeding 0.1%. HCT-116 and Caco-2 cell lines were purchased from American Type Culture Collection, Rockville, MD, USA and DMEM supplemented with […], […] bovine serum (FBS), penicillin (100 U/mL), streptomycin (100 μg/mL) and gentamicin (5 μg/mL). Cells were maintained in log phase by seeding twice a week at a density of 3 × 10^8 cells/L in humidified 5% CO2 atmosphere, at 37 °C. In all experiments, HCT-116 cells were made quiescent through overnight incubation before treatment with tested compounds or vehicle alone (control cells), while Caco-2 cells were treated 15 days after confluence, at which time the cells are differentiated in normal intestinal-like cells. […]
# Cytotoxic activity of the nortopsentin derivatives 1k and 4c was determined by the colorimetric assay based on the reduction of […] (MTT) to purple formazan by mitochondrial dehydrogenases. […] Cells were incubated 2 h at 37 °C, then medium was discarded by centrifugation, formazan blue formed in the cells dissolved in DMSO, and absorbance measured at 570 nm in a microplate reader (Bio-RAD, Hercules, CA, USA). […] GI50 was calculated by the curve of percent viability vs. concentration. […]
# MALME-3M = experiment: NCI-60 in vitro tumor cell screen, MALME-3M; format: cell-based; conditions: Homo sapiens, Melanoma
# Procedure: as §1, §2
Structure (SMILES),GI50 (UACC-257),"increase of the bright red to green fluorescence intensity ratio of acridine orange (HCT-116 cells [1]; concentration GI30, vs control)",percent of cells with AVO with respect to control (HCT-116 cells [1]; highest drug concentration),GI50 (SK-MEL-28),GI50 (786-0),GI50 (HOP-62),GI50 (IGROV1),apoptosis (Annexin V-FITC/PI staining) (HCT-116 cells [2]),GI50 (SK-OV-3),GI50 (SN12C),GI50 (SR),GI50 (BT-549),GI50 (LOX IMVI),GI50 (COLO-205),GI50 (UO-31),effect on cell viability [3],GI50 (MALME-3M)
"Clc1nccc2c(-c3csc(-c4c[nH]c5ccc(Br)cc45)n3)c[nH]c12 [Compound 4c, 3-[2-(5-Bromo-1H-indol-3-yl)-1,3-thiazol-4-yl]-7-chloro-1H-pyrrolo[2,3-c]pyridine]",2.68 µM,10 fold,did not significantly modify,1.85 µM,1.37 µM,2.11 µM,2.51 µM,evident only at high concentrations (GI70),2.78 µM,3.35 µM,1.27 µM,4.7 µM,1.63 µM,1.8 µM,0.93 µM,did not affect the differentiated Caco-2 cell viability,
"Cn1cc(-c2csc(-c3c[nH]c4ncccc34)n2)c2cc(Br)cnc21 [Compound 1k, 5-Bromo-1-methyl-3-[2-(1H-pyrrolo[2,3-b]pyridin-3-yl)-1,3-thiazol-4-yl]-1H-pyrrolo[2,3-b]pyridine]",,,,,9.65 µM,2.39 µM,2.21 µM,percentage of cells in late apoptosis increased,3.25 µM,,,20.5 µM,4.26 µM,,,did not affect the differentiated Caco-2 cell viability,3.01 µM
